# Where “and” joins values, the source holds several entries; their conditions need not be identical. Identical values can stand only once. Like-named read-outs stand apart in the source and are kept apart here.
# How the values were obtained:
# [1] = tested on: HUVEC (Normal human endothelial cell)
# [2] = tested on: FN-1 (Normal human fibroblast); experiment: Cytotoxicity, normal human fibroblasts; assay type: cell-based; conditions: for CI50% Normal cells: FN-1
# Description: Fragments of cutaneous biopsies from patients treated by the Dermatology Service of the Clinic Hospital of the Medicine School of USP were removed for routine diagnostic procedures and part of the surgical flap edge immersed in Eagle culture medium modified by Dulbecco's (DMEM, Sigma Chemical Co., St. Louis, Mo., USA) added of 10% fetal bovine serum (Cultilab Ltda., Campinas-SP), […] and 50 ng/ml amphotericin B at 4 C and kept at 4 C for a maximum of 16 hours.
# The fragments were washed three times in the same solution, cut into fragments of approximately 1 mm^3 and transferred to 25 cm^2 culture flasks, kept at 37 C, humid atmosphere containing 5% CO2. Cell growth monitored daily, photo documented in inversion microscopy and culture medium exchanged every 2 or 3 days, according to cell metabolism.
# After 7 days, the first change in the culture medium of the flasks was performed once cell growth started, the culture medium was renewed every three days. Plastic flasks were used for cultivation of 25 cm^2 of cultivated area, where more 3 ml of DME medium containing 10% fetal bovine serum and 1% of antibiotic-antimycotic solution will be added.
# The cell viability test was performed to verify the effect of the various compounds on the various concentrations previously established: on the lines of tumor cells B16F10 and normal human fibroblasts. The MTT method consists of a cell viability test that measures the activity of mitochondrial dehydrogenase. MTT is a colorimetric method based on the capacity of living cells to reduce salt 3-(4,5-di-methylazole-2-IL)-2,5-diphenyl tetrazolium bromide in the formazan product (Mosmann, 1983). […]
# The 96-well plate was read by the spectrophotometer (Spectra MAX-190) using the wavelength of 570 nm. The results were analyzed by absorbance of each well. The percentage of viability was obtained using the following formula: [(Absorbance of treated cells/Absorbance of untreated cells)×100]. […]
# [3] = tested on: HUVEC (Normal human endothelial cell); experiment: Cytotoxicity, HUVEC normal cells
# CaCo2 = experiment: In vitro cytotoxicity, CaCo2 colon line; assay type: cell-based; conditions: Homo sapiens, Caco-2
# MIAP2 = experiment: In vitro cytotoxicity, MIAP2 pancreas line; assay type: cell-based; conditions: Homo sapiens
# Colo205 [4] = experiment: Analysis of the cell cycle phases, Colo205; assay type: cell-based
# Source text: The compounds of this family were also studied for the distribution of the population of tumor cells in the different phases of the cell cycle: quiescent cells, non-proliferating (G1/G0 phase), which present DNA/RNA synthesis capacity (S phase) and cell division cells (G2/M phase).
# tumor cells line Colo205 = experiment: Colo205 cell count; assay type: cell-based; conditions: compared to cells treated with culture medium only
# Description: The compounds were tested for their ability to reduce the number of cells in the tumor, compared to cells treated with culture medium only. In Table 4, the results obtained are shown.
# HT-29 = experiment: In vitro cytotoxicity, HT-29 colon line; assay type: cell-based; conditions: Homo sapiens
# SW620 = experiment: In vitro cytotoxicity, SW620 colon line; assay type: cell-based; conditions: Homo sapiens, SW-620
# PANC1 = experiment: In vitro cytotoxicity, PANC1 pancreas line; assay type: cell-based; conditions: Homo sapiens, PANC-1
# Colo205 [5] = experiment: In vitro cytotoxicity, Colo205 colon line; assay type: cell-based; conditions: Homo sapiens, COLO 205
# CRO2B = experiment: In vitro cytotoxicity, CRO2B carcinoid line; assay type: cell-based; conditions: Homo sapiens
# [6] = tested on: lines of human carcinoma tested; experiment: In vitro cytotoxicity against the panel of human carcinoma lines
# [7] = tested on: murine melanoma cells B16F10; experiment: MTT cytotoxicity in B16F10 melanoma cells; assay type: cell-based; conditions: Mus musculus, B16-F10; B16F10 melanoma, 24 hours of culture, MTT; read-out: CI50% (the source's name)
# Description: The tumor line of murine melanoma B16F10 was donated by the Ludwig-Switzerland Institute. Adherent cell suspensions of B16F10 cells were obtained for all experimental procedures by treating culture flasks with trypsin 0.2% for 5 minutes and inactivated with 10% fetal bovine serum. The detached cells were centrifuged twice, resuspended in supplemented RPMI-1640 medium. The count was performed in Malassez chamber, and the cell concentration was adjusted in 5×10^5 cells/ml, in RPMI-1640 culture medium supplemented with 10% fetal bovine serum and 7 ug polymyxin-B (Sigma Chemical Company, St Louis Mo.-USA).
# Cell viability was determined by the Trypan Blue exclusion test, being greater than 95% of viable cells. The cells were grown in plates with 96 well plate flat bottoms (Corning), at a concentration of 2×10^5 cells, maintained for 24 hours in a CO2 oven at 37° C. After this period, the plates were centrifuged for 5 minutes, at 2000 rpm at 4° C., the supernatant discarded and added different concentrations of the compounds, diluted in RPMI-1640 culture medium, supplemented and increased by 7 μg of Polymyxin-B (Sigma Chemical Company). After treatment with the various diluted compounds in complete culture medium, the cells were incubated with 0.5 mg/mL of MTT reactive.
# The cell viability test was performed to verify the effect of the various compounds on the various concentrations previously established: on the lines of tumor cells B16F10 and normal human fibroblasts. The MTT method consists of a cell viability test that measures the activity of mitochondrial dehydrogenase. MTT is a colorimetric method based on the capacity of living cells to reduce salt 3-(4,5-di-methylazole-2-IL)-2,5-diphenyl tetrazolium bromide in the formazan product (Mosmann, 1983). After the cells plating (concentration of 1×10^4 per well of the culture plate) in RPMI-1640 medium and 10% SFB medium, they were maintained at 37° C. for periods of 24, 48, 72 and 96 hours. Four hours before the set time was completed, MTT 20 μL (Sigma) was added (final concentration of […]). The plates were kept in the oven for the remaining four hours. After the stipulated time, 180 μL of the supernatant were removed from each well and then added 150 μL of dimethyl sulfoxide (Sigma) homogenizing well for the complete dissolution of the salt crystals formed by the mitochondrial metabolism resulting in a staining.
# The 96-well plate was read by the spectrophotometer (Spectra MAX-190) using the wavelength of 570 nm. The results were analyzed by absorbance of each well. The percentage of viability was obtained using the following formula: [(Absorbance of treated cells/Absorbance of untreated cells)×100]. The experiments were carried out in quadruplicate.
# The samples of the compounds obtained by synthesis chemistry were diluted in DMSO solution at the final concentration of 10%.
# Colo205 [8] = experiment: Determination of apoptotic cells (subG1), Colo205, flow cytometry; assay type: cell-based; conditions: sub-diploid DNA content
# Source text: Determination of Apoptotic Cells (subG1)-Colo205
# In this experiment, the proportion of apoptotic cells was identified, that is, cells showing DNA content below normal (sub-diploid) in flow cytometry testing.
# BxPC3 = experiment: In vitro cytotoxicity, BxPC3 pancreas line; assay type: cell-based; conditions: Homo sapiens, BXPC-3
# [9] = tested on: MCF-7 (human mammary adenocarcinoma); experiment: Cytotoxicity, MCF-7 cells; assay type: cell-based; conditions: MCF7, read-out: CI50% tumor cells
# [10] = tested on: SCC9 (squamous-cell carcinoma of the oral cavity); experiment: Cytotoxicity, SCC9 cells; assay type: cell-based; conditions: Homo sapiens, SCC-9, read-out: CI50% tumor cells
# [11] = tested on: 4T1 (murine mammary carcinoma); experiment: Cytotoxicity, 4T1 cells; assay type: cell-based; conditions: Mus musculus, read-out: CI50% tumor cells
# [12] = tested on: SCC25 (squamous-cell carcinoma of the oral cavity); experiment: Cytotoxicity, SCC25 cells; assay type: cell-based; conditions: Homo sapiens, SCC-25, read-out: CI50% tumor cells
# MCF7 = experiment: Cytotoxicity, MCF7 breast line; assay type: cell-based; conditions: Homo sapiens; MCF7 (breast cancer); read-out: CI50 (the source's name)
# NCI460 = experiment: Cytotoxicity, NCI460 lung line; assay type: cell-based; conditions: Homo sapiens, NCI-460, read-out: CI50 (the source's name)
# NCIADR = experiment: Cytotoxicity, NCIADR multiple drug resistant ovary line; assay type: cell-based; conditions: Homo sapiens, NCI/ADR-RES, read-out: CI50 (the source's name)
# UACC62 = experiment: Cytotoxicity, UACC62 melanoma line; assay type: cell-based; conditions: Homo sapiens, UACC-62, read-out: CI50 (the source's name)
# DLD1 = experiment: Antitumor activity, DLD1 line; assay type: cell-based; conditions: Homo sapiens, DLD-1; DLD1, Table 3; read-out: CI50% (the source's name)
compound,measurement,setting,value
"5-(chloro-2-(3,4-dimethoxybenzyl)-5-(4-ethynyl-2,3,4,6-benzil-β-D-galactopyranoside)-penta-2,4-dienonitrile [Compound 21A]",CI50% Normal cells,[1],23.09 µM
"COc1ccc(/C=C/C(Cl)=C/C=C(C(C)=O)C(C)=O)cc1OC [Compound 24, 3-((2Z,4E)-3-chloro-5-(3,4-dimethoxyphenyl)penta-2,4-dien-ylidene)pentane-2,4-dione]",CI50% Normal cells,[2],61.80 µM
same,CI50% Normal cells,[3],114 µM
"N#CC(C#N)=C/C=C(\Cl)c1ccccc1OC(=O)c1ccccc1 [Compound 6, 2-(1-chloro-4,4-dicyano-buta-1,3-dienyl)phenyl Benzoate]",activity against fibroblasts (in words),[2]; fibroblasts,significant activity
same,IC50,"CaCo2; CaCo2, colon, read-out: IC50",9.25 µM
same,IC50,"MIAP2; MIAP2, pancreas, read-out: IC50",4.47 µM
same,Cell cycle phase (%) G1/G0,Colo205 [4]; G1/G0 phase,64.3 ± 1.69%
same,Cell cycle phase (%) G2M,Colo205 [4]; G2/M phase,16.0 ± 0.28%
same,Cell cycle phase (%) S,Colo205 [4]; S phase,19.7 ± 1.48%
same,Relative number of cells (% ± standard deviation),tumor cells line Colo205,12.7 ± 0.339%
same,IC50,"HT-29; HT-29, colon, read-out: IC50",4.47 µM
same,IC50,"SW620; SW620, colon, read-out: IC50",13.4 µM
same,IC50,"PANC1; PANC1, pancreas, read-out: IC50",57.3 µM
same,IC50,"Colo205 [5]; Colo205, colon, read-out: IC50",16.4 µM
same,IC50,"CRO2B; carcinoid, read-out: IC50",7.46 µM
same,cytotoxic activity (in words),[6]; tumor cell lines of human carcinoma tested,potent in vitro activity
same,IC50,[7],30.6 µg/mL and 91.6 µM
same,"Percentage of cells (apoptotic, subG1)",Colo205 [8],41.8 ± 0.141%
same,IC50,"BxPC3; BxPC3, pancreas, read-out: IC50",27.7 µM
"COc1ccc(/C=C/C(Cl)=C/C=O)cc1OC [Compound 23, (4E)-3-chloro-5-(3,4-dimethoxyphenyl)penta-2,4-dienal]",CI50% Normal cells,[2],53.33 µM
same,IC50,[9],54.6 µM
same,CI50% Normal cells,[3],30.1 µM
same,IC50,[10],15 µM
same,IC50,[11],22.1 µM
same,IC50,[12],3.32 µM
"CC(=O)c1ccccc1OCC=C(C)C [Compound 9, 2-(3-methylbut-2-enyl-oxyi)acetophenone]",IC50,MCF7,122 µM
same,IC50,NCI460,122 µM
same,IC50,NCIADR,39.2 µM
same,IC50,UACC62,220 µM
"O=CC=C(Cl)c1ccccc1OC(=O)c1ccccc1 [Compound 5, 3-Chloro-3-(2-benzoyloxy-phenyl)propenal]",IC50,"CaCo2; Caco2, Table 3, read-out: CI50% (the source's name)",163 µM
same,IC50,"MIAP2; MIAP2, Table 3, read-out: CI50% (the source's name)",156 µM
same,IC50,"HT-29; HT-29, HT29, Table 3, read-out: CI50% (the source's name)",92 µM
same,IC50,"SW620; SW620, Table 3, read-out: CI50% (the source's name)",134 µM
same,IC50,"PANC1; PANC1, Table 3, read-out: CI50% (the source's name)",177 µM
same,IC50,"Colo205 [5]; Colo205, Table 3, read-out: CI50% (the source's name)",149 µM
same,IC50,"CRO2B; Table 3, read-out: CI50% (the source's name)",149 µM
same,cytotoxic activity relative to compound 6,[6]; compared with compound 6,seven times lower
same,IC50,DLD1,127 µM
same,IC50,"BxPC3; BxPC3, Table 3, read-out: CI50% (the source's name)",160 µM
"CC(=O)C(=C/C=C(\Cl)c1ccc(C#C[C@@H]2O[C@H](CO)[C@@H](O)[C@H](O)[C@@H]2O)cc1)C(C)=O [Compound 18B, 3-((Z)-3-chloro-3-(4-(2-((2S,3R,4R,5R)-tetrahydro-3,4,5-trihydroxy-6-(Hydroxymethy)-2H-pyran-2-il)ethynyl)phenyl)allilideno)pentano-2,4-dione]",CI50% Normal cells,[3],0.293 µM
same,IC50,[10],0.445 µM
same,IC50,[11],0.431 µM
same,IC50,[12],0.453 µM

# Source: US20230130823A1, “PROCESS FOR THE PRODUCTION OF ANTITUMOUR PHARMACEUTICAL COMPOSITIONS USING PUSH-PULL BUTADIENES, COMPOUNDS AND USES THEREOF” (ANHANGUERA EDUCACIONAL PARTICIPAÇÕES S/A, priority 2019, published 2023)
